Measurements reported in patent US20060189539A1, “Novel GnRH analogues with antitumour effects and pharmaceutical compositions thereof” (priority 1994, published 2006).
Non-standard residues stand in square brackets, D forms with d. Residues, ends and D or L forms follow the SMILES beside them. dPhe(4-Cl) = N[C@H](Cc1ccc(Cl)cc1)C(=O)O

Legend:
[1] = tested on: MDA-MB-231 human mammary carcinoma cell line; test: Inhibition of colony formation (dose-survival), Example 48; type: cell-based
Excerpt: (§1) MCF-7 human mammary carcinoma cell line was stabilized in 1973 by Soule et al. from the pleural fluid of a patient suffering from mammary carcinoma. MDA-MB-231 human mammary carcinoma cell line was isolated and stabilized by Cailleau et al. in 1974 similarly from pleural fluid. Both cell lines grow in monolayer. MCF-7 and MDA-MB-231 human mammary carcinoma cell lines are maintained in plastic flasks (Greiner), in Dulbecco-modified Eagle-MEM (DMEM, GIBCO) liquid nutrient medium containing 10% of fetal calf serum. MCF-7 cell line is estradiol receptor (ER)-positive containing proteins specifically binding GnRH. Thus, it represents, a useful model system for investigating the direct effect of GnRH mediated by the GnRH receptor. Being ER-negative and GnRH receptor-positive, MDA-MB-231 cell line is similarly suitable to study the direct effect of GnRH. PC3 human prostate carcinoma cell line was stabilized in cell culture by Kaighn et al. in 1979. The cells are of epithelial type and form compact colonies in clonogenic assays. The Ishikawa cell line originates from human endometrial adenocarcinoma [M. Nishida et al.: Acta Obstet. Gynecol. Jpn. 37, 1103-1111 (1985)], it is epithelial in its character and contains steroid-as well as GnRH receptors.
(§2) The examination gives accurate information about the cell-damaging effect of the substance tested as a function of varying doses. The treatment was carried out once; the colonies formed from the surviving cells were counted after 8-12 days. […] A part of the arrested cells again entered the cycle, an other part of them might be destroyed (apoptosis). […] In the case of a dose-response investigation, colonies containing less than 15 cells were not counted. 300 cells were put into each Petri dishes of 3.5 cm in diameter. The treatment was once carried out 24 hours after setting, then the colonies formed were counted after 8-12 days. The cells were treated once after 24 hours with 1-50 μM of various GnRH analogues of Examples above or with 1-50 μM of GnRH-III, respectively. The percentages of inhibition obtained on MCF-7, MDA-MB-231, PC3 and Ishikawa cells, respectively, together with the dose of the active agent used are shown in Table VIII.

[2] = tested on: MCF-7 human mammary carcinoma cell line; test: as above; type: cell-based
Excerpt: MCF-7 human mammary carcinoma cell line was stabilized in 1973 by Soule et al. from the pleural fluid of a patient suffering from mammary carcinoma. MDA-MB-231 human mammary carcinoma cell line was isolated and stabilized by Cailleau et al. in 1974 similarly from pleural fluid. Both cell lines grow in monolayer. […] MCF-7 cell line is estradiol receptor (ER)-positive containing proteins specifically binding GnRH. Thus, it represents, a useful model system for investigating the direct effect of GnRH mediated by the GnRH receptor. Being ER-negative and GnRH receptor-positive, MDA-MB-231 cell line is similarly suitable to study the direct effect of GnRH. PC3 human prostate carcinoma cell line was stabilized in cell culture by Kaighn et al. in 1979. The cells are of epithelial type and form compact colonies in clonogenic assays. The Ishikawa cell line originates from human endometrial adenocarcinoma [M. Nishida et al.: Acta Obstet. Gynecol. Jpn. 37, 1103-1111 (1985)], it is epithelial in its character and contains steroid-as well as GnRH receptors. The examination gives accurate information about the cell-damaging effect of the substance tested as a function of varying doses. The treatment was carried out once; the colonies formed from the surviving cells were counted after 8-12 days. […] A part of the arrested cells again entered the cycle, an other part of them might be destroyed (apoptosis). […] The treatment was once carried out 24 hours after setting, then the colonies formed were counted after 8-12 days. The cells were treated once after 24 hours with 1-50 μM of various GnRH analogues of Examples above or with 1-50 μM of GnRH-III, respectively. The percentages of inhibition obtained on MCF-7, MDA-MB-231, PC3 and Ishikawa cells, respectively, together with the dose of the active agent used are shown in Table VIII.

[3] = tested on: MXT mouse mammary tumour; test: In vivo antitumour effect on MXT mouse mammary tumour; parameters: species or system CBA/Ca mice
Protocol: The MXT mouse mammary carcinoma contains ER and PgR proteins; furthermore, it contains also GnRH receptors; therefore, this in vivo tumor model is suitable for studying both the direct and indirect effects. The treatment of mice bearing MXT mammary tumour was commenced on the day following transplantation. […] The animals were daily treated in s.c. route starting from the day following transplantation of MXT mouse mammary tumour. […] MI-1544: 75 μg/day/animal; MI-1892: 75 μg/day/animal.

[4] = tested on: Ishikawa endometrium tumour cell culture; test: Inhibition of colony formation (dose-survival), Example 48; type: cell-based, human; details: 50 μM
Excerpt: as §1, §2

[5] = tested on: PC3 prostate tumour cell culture; test: as above; type: cell-based, human; details: for % Inhibition of colony formation: 50 μM; for Effect on colony-forming ability: within the dose range used (1-50 μM)
Excerpt: as §1, §2

[6] = tested on: human tumor cell lines; test: Colony formation, Example 48, comparison with control D-Trp6-hGnRH; type: cell-based; details: data of Table VIII
Protocol: as §2
In these studies the D-Trp6-hGnRH analogue (Sigma Co.) commonly used in the tumour therapy was employed as control.

[7] = tested on: MCF-7 human mammary carcinoma cell line; test: Inhibition of colony formation (dose-survival), Example 18; type: cell-based; details: 50 μM
Excerpt: (§3) Human cell lines used in in vitro experiments. MCF-7 human mammary tumour cell line was stabilized in 1973 by Soule et al. from the pleural fluid of mammary carcinoma patients. The cells grow in monolayer and are epithelial in their character. MDA-MB-231 human mammary carcinoma cell line was isolated and stabilized in 1974 by Cailleau et al. similarly from pleural fluid. These cells also grow in monolayer. PC3 human prostate carcinoma cell line was stabilized 20 in 1979 in cell culture by Kaighn et al.; the cells are of simple epithelium type and form compact colonies in clonogenic assays. Ishikawa cell line originated from adenocarcinoma of human endometrium [Nishida et al.: Obstet. Gynecol. Jpn, 37, 25 1103-1111 (1985)], has epithelial character and contains steroid as well as GnRH receptors. Human tumour cell lines are maintained in plastic flasks (Greiner) in Dulbecco-6modified Eagle-MEM (DMEM GIBCO) nutritive medium. The medium used herein contained 10% of fetal calf serum (FCS).
(§4) In the case of cytostatics the cell-damaging effect is not cell-specific. […] One part of the arrested cells again go into the cycle, the other part may perish (apoptosis). […] The investigations were carried out on MCF-7 and MDA-MB-231 human mammary carcinoma cell lines, PC3 human prostate 15 carcinoma cell line and Ishikawa human endometrium carcinoma cell line. Threehundred cells were set into Petri dishes of 3.5 cm in diameter each. The treatment was carried out once, 24 hours following the explantation, then the colonies formed were counted after 9 to 12 days.

[8] = tested on: Ishikawa human endometrium carcinoma cell line; test: as above; type: cell-based; details: 50 μM
Excerpt: as §3, §4

[9] = tested on: PC3 human prostate carcinoma cell line; test: as above; type: cell-based; details: 50 μM
Excerpt: as §3, §4

Molecule	% Inhibition of colony formation ([1]; 50 μM)	% Inhibition of colony formation ([2]; 50 μM)	% Inhibition of colony formation [4]	Inhibitory effect on colony formation compared with control D-Trp6-hGnRH [6]	also measured
Lys^5-GnRH-III [Compound 2]	0%	0%			
CC(=O)N[C@H](Cc1c[nH]c2ccccc12)C(=O)N[C@H](Cc1ccc(Cl)cc1)C(=O)N[C@H](Cc1c[nH]c2ccccc12)C(=O)N[C@@H](CO)C(=O)N[C@@H](Cc1ccc(O)cc1)C(=O)N[C@H](CCCCN)C(=O)N[C@@H](CC(C)C)C(=O)N[C@@H](CCCNC(=N)N)C(=O)N1CCC[C@H]1C(=O)N[C@H](C)C(N)=O [MI-1544, Ac-D-Trp^1,3,D-Cpa^2,D-Lys^6, D-Ala^10-hGnRH] (Ac-[dW][dPhe(4-Cl)][dW]SY[dK]LRP[dA]-NH2)					Tumour volume as control (%) ([3]; 75 μg/day/animal s.c., day 20): 54%; Inhibition % ([3]; 1 × 75 μg daily s.c.): 46%; Tumour volume as control (%) ([3]; 1 × 75 μg daily s.c., Treatment weeks: 20): 54%
CC(C)C[C@H](NC(=O)[C@@H](Cc1c[nH]c2ccccc12)NC(=O)[C@H](Cc1ccc(O)cc1)NC(=O)[C@H](CO)NC(=O)[C@H](Cc1c[nH]c2ccccc12)NC(=O)[C@H](Cc1c[nH]cn1)NC(=O)[C@@H]1CCC(=O)N1)C(=O)N[C@@H](CCCNC(=N)N)C(=O)N1CCC[C@H]1C(=O)NCC(N)=O [D-Trp6-hGnRH, pGlu-His-Trp-Ser-Tyr-D-Trp-Leu-Arg-Pro-Gly-NH2, reference compound]	38.7%	36.7%			% Inhibition of colony formation ([1]; 10 μM): 15.7%; % Inhibition of colony formation ([2]; 10 μM): 17.1%
Glu^6-GnRH-III [Compound 8]	25%		2%	exceeded the inhibitory effect of control	% Inhibition of colony formation [5]: 31%
[Lys(ε-Ac)]^4-GnRH-III [Compound 7]	42%	52%	14%	exceeded the inhibitory effect of control	% Inhibition of colony formation [5]: 0%; Effect on colony-forming ability [5]: did not influence; % Inhibition of colony formation ([1]; 10 μM): 31%
[Lys(ε-Fmoc)]^5-GnRH-III [Compound 1]				weak if any effect	
{D-Lys[n-poly(N-vinylpyrrolidone-co-maleic acid)-Gly-Phe-Leu-Gly]}6,-GnRH [P-GFLG-609]					% Inhibition of colony formation ([2]; 10 μM): 40%
Lys^5,cyclo[Asp^6-Lys^8]-GnRH-III [Compound 3]		44%	13%	exceeded the inhibitory effect of control	% Inhibition of colony formation [7]: 44%; % Inhibition of colony formation [8]: 13%
{Lys[n-poly(N-vinylpyrrolidone-co-maleic acid)-Gly-Phe-Leu-Gly-]}5,cyclo(Asp6-Lys8)-GnRH-III [P-GFLG-Lys5-cyclo(Asp6,Lys8)-GnRH-III]					% Inhibition of colony formation [9]: 100%; % Inhibition of colony formation [8]: 19%
Phe^7-GnRH-III [Compound 15]	21%			weak if any effect	
[Trp(For-Ind)]^3,7-GnRH-III [Compound 14]			24%	approximated the activity of the control	
Ac-D-Trp^1,3,D-Cpa2,{Lys[n-poly(N-vinylpyrrolidone-co-maleic acid)-Ahx]}5,[a-Asp(DEA)]6,D-Ala10-GnRH [P-Ahx-1892]		31%			
H-Glu^1, D-Trp^6-hGnRH [Compound 19]		32.7%		approximated the activity of the control	% Inhibition of colony formation ([2]; 10 μM): 16.8%
Lys^5, D-Trp^6-hGnRH [Compound 17]	63%	65%	17%	twice stronger inhibition	% Inhibition of colony formation [5]: 18%; Effect on colony-forming ability [5]: weakly inhibited; % Inhibition of colony formation ([1]; 10 μM): 30%
